Reference: patent US11279676B2 (CHIA TAI TIANQING PHARMACEUTICAL GROUP CO., LTD., priority 2018, dated 2022)
Where two headings read alike, the source gives them in different places.

Experiments:
[1] = Hygroscopicity test (Chinese Pharmacopoeia 2015, General Chapter 9103); format: physicochemical; settings: Guidelines for Drug Moisture Test, Chinese Pharmacopoeia 2015 Chapter 9103
Description: Took the crystalline form A, crystalline form B, crystalline form D and crystalline form E of the compound of formula I to conduct test according to the “Guidelines for Drug Moisture Test” of the Chinese Pharmacopoeia 2015 Edition Fourth General Chapter 9103, and respectively, the weight gain of samples due to hygroscopicity was calculated.

[2] = Pharmacokinetic test in rats (relative bioavailability after gavage); format: in vivo; settings: intragastric 20 mg/kg in gavage capsules; for Relative F: relative to crystalline form A (100)
Description: The relative bioavailability of the compound of formula I in vivo was evaluated, after SD rats were gavaged with crystalline form A, crystalline form B, crystalline form D and crystalline form E of the compound of formula I.
Test samples: crystalline form A, crystalline form B, crystalline form D and crystalline form E of the compound of formula I filled in No. 9 gavage capsules separately
SD rats, weighing 180-200 g, after adaptation of 3-5 days, were randomly divided into 4 groups, with 4 rats in each group, and were respectively administered of crystalline form A, crystalline form B, crystalline form D and crystalline form E of the compound of formula I by intragastric administration at a dose of 20 mg/kg. The rats were fasted for 12 hours before administration and given food 4 hours after administration. Drinking water was free before and after the experiment and during the experiment.
After administration, the collection time points were 0.167 h (10 min), 0.5 h, 1 h, 2 h, 4 h, 6 h, 8 h, 10 h, and 24 h. About 0.3 mL of blood was collected from the orbital venous plexus and placed in a centrifuge tube containing EDTA-K2. Stored at 4° C. Centrifuged at a condition of 4° C., 4000 rpm, 10 min within 1 h, and stored at −20° C. to be tested.
Pipetted 50 μL of plasma sample to be tested, added 300 μL of acetonitrile solution containing internal standard, shook and mixed for 5 min, centrifuged at 13000 rpm for 10 min, took 30 μL of supernatant, added 150 μL of 50% acetonitrile aqueous solution, and pipetted 1 μL for LC/MS/MS analysis and determination.
Making use of liquid chromatography-tandem mass spectrometry (LC-MS/MS), with diazepam as an internal standard (IS), protein precipitation method was used to extract the analyte and internal standard from the plasma, and reverse phase chromatography column was adopted to separate compounds and internal standard. The analyte was quantified by electrospray ionization (ESI) mode of a tandem quadrupole mass spectrometer.

[3] = SD, rat, plasma, po, 20 mg/kg, mean of 4 rats
[4] = SD rats, plasma, mean of 4 rats, listed as Crystalline Form D of the Compound of Formula I
[5] = SD rats, plasma, mean of 4 rats, listed as Crystalline Form E of the Compound of Formula I
[6] = SD rats, plasma, mean of 4 rats, listed as Crystalline Form B of the Compound of Formula I

## COc1cc2c(Oc3ccc(NC(=O)C4(C(=O)Nc5ccc(F)cc5)CC4)cc3F)ccnc2cc1OCC1(NC2CCCC2)CC1 [Example 1]
[1]
  Weight Gain due to Hygroscopicity: Less than 0.2%
[2]; SD rats, listed as Crystalline Form A of the Compound of Formula I
  Relative F: 100%
[2]; [3]
  AUC(0-inf): 4960 ng·h/mL
  AUC(0-t): 4700 ng·h/mL
  half-life: 4.93 h
[2]; SD, rat, plasma, po, 20 mg/kg, plasma, mean of 4 rats, read-out: MRT(0-t)
  MRT last: 8.51 h
[2]; SD, rat, plasma, po, 20 mg/kg, plasma, mean of 4 rats, read-out: Tmax
  Tmax: 6 h

## COc1cc2c(Oc3ccc(NC(=O)C4(C(=O)Nc5ccc(F)cc5)CC4)cc3F)ccnc2cc1OCC1(NC2CCCC2)CC1 [Example 4]
[2]; [4]
  MRT(0-t): 8.73 h
  Tmax: 6.00 h
  t1/2: 5.20 h
[2]; SD rats, listed as Crystalline Form D of the Compound of Formula I
  Relative F: 72%

## COc1cc2c(Oc3ccc(NC(=O)C4(C(=O)Nc5ccc(F)cc5)CC4)cc3F)ccnc2cc1OCC1(NC2CCCC2)CC1 [Example 5]
[2]; [5]
  MRT(0-t): 7.30 h
  Tmax: 4.50 h
  t1/2: 4.61 h
[2]; SD rats, listed as Crystalline Form E of the Compound of Formula I
  Relative F: 84%

## COc1cc2c(Oc3ccc(NC(=O)C4(C(=O)Nc5ccc(F)cc5)CC4)cc3F)ccnc2cc1OCC1(NC2CCCC2)CC1 [Example 2]
[2]; [6]
  MRT(0-t): 6.72 h
  Tmax: 4.00 h
  t1/2: 5.30 h
[2]; SD rats, listed as Crystalline Form B of the Compound of Formula I
  Relative F: 134%
